Experimental data as given in US11634458B2, “Peptides and compositions for use in cosmetics and medicine” (LIPOTRUE, S.L., priority 2018, dated 2023).

Columns and labels:
LAN cells = experiment: Measurement of acetylcholine release in differentiated LAN cells stimulated with 50 mM KCl; assay type: cell-based; conditions: 1 hour treatment, 0.001, 0.005 and 0.01 mg/mL (Ac-SEQ ID NO: 8-NH2: 0.005 and 0.05 mg/mL)
Method: Said peptides were tested for their ability to modulate acetylcholine release in vitro. To that end, LAN cells were seeded on 48-well culture plates and allowed to reach the appropriate confluence under controlled conditions (37° C., 5% CO2) before inducing differentiation by replacing the culture media with Neurobasal® A media, supplemented with N-2 Supplement, GlutaMAX™, choline chloride and Leukemia Inhibition factor (GIBCO, Life technologies, MA, USA). Once the cells acquired its differentiated morphology, they were treated with the peptides mentioned above at the following concentrations for 1 hour: all peptides, except Ac-SEQ ID NO: 8-NH2, at 0.001 mg/mL, 0.005 mg/mL and 0.01 mg/mL; and peptide Ac-SEQ ID NO: 8-NH2 at 0.005 mg/mL and 0.05 mg/mL. Cells were then washed with HEPES, before stimulation of acetylcholine release by depolarization with external 50 mM KCl solution. Non-stimulated cells were incubated with non-depolarizing 4 mM KCl solution. After 30 minutes of incubation with the corresponding depolarizing or non-depolarizing KCl solution, cell supernatants were collected and used to measure acetylcholine levels with Amplex Red Acetylcholine Assay Kit (ThermoFisher Scientific, MA, USA). Cell pellets were used to determine protein content by BCA Protein Test Assay (Pierce BCA Protein Assay kit, ThermoFisher Scientific, MA, USA) (for data normalization purposes).
Percentage of acetylcholine release inhibition was calculated considering 100% release for the positive control (non-treated stimulated with KCl cells).

myosin heavy chain = experiment: Myosin heavy chain protein decrease by immunofluorescence; assay type: cell-based, human; conditions: vs non-treated cells; for reduction of myosin heavy chain protein levels: 48 hours
Method: The potential of said peptide Ac-SEQ ID NO: 8-NH2 to decrease the expression of the protein myosin heavy chain in human skeletal muscle cells was evaluated in vitro by immunofluorescence using a specific antibody against this protein (Biotechne, USA) followed by a secondary fluorescent antibody (Thermofisher, USA). Briefly, human skeletal muscle myoblasts were seeded onto coverslips in SKM-M medium (Tebu-Bio, France) at a density of 3×10^4 cells/cm^2 and incubated overnight at standard culture conditions (37° C., 95% humidity, 5% CO2). Myoblast differentiation to myocyte was then induced with specific differentiation medium (Skeletal Muscle Cell Differentiation Medium, SKM-D medium) and monitored for 7 more days. Differentiated cells were treated with non-cytotoxic concentrations of peptide Ac-SEQ ID NO: 8-NH2 (0.05 mg/mL and 0.5 mg/mL) for additional 48 hours.
Once incubation was finished, cells were fixed with 4% PFA and permeabilized using 0.1% (v/v) Triton (Sigma, USA). Myosin was then stained with 0.5 mg/ml myosin heavy chain antibody during 2 h at room temperature. After proper washing, actin protein was labelled with 50 μg/ml Phalloidin (red) (Sigma, USA) for 1 h and, after washing, cells were stained with 4 μg/ml of the secondary antibody Goat anti-Mouse IgG for 1 h. Finally, nuclei were stained with 3.5 μg/ml Hoescht marker for 10 min (Sigma, USA).
Microscopic images were acquired using the 5× and 10× objectives. Three replicates were used for each condition and images of three to four fields of each coverslip were acquired using the same settings.
Images were analyzed using Image J software. Shortly, threshold was adjusted to select myosin and mean fluorescent was measured. The number of positive cells was counted using DAPI staining. Myosin mean fluorescent intensity was divided by the number of myosin-positive cells. Finally, all data was normalized as follows to obtain the % of myosin compared to non-treated cells: % vs. control=(fluorescence per cell in treated wells/fluorescence per cell in non-treated wells)×100.

collagen type I = experiment: Collagen type I production by fibroblasts (competitive ELISA); assay type: cell-based, human; conditions: vs non-treated cells
Method: The potential of said peptide Ac-SEQ ID NO: 8-NH2 to modulate the production of collagen type I as a potential improver of skin firming was evaluated in vitro using human skin fibroblasts.
Cell were seeded in 96-well plates at 1×10^4 cells/well and maintained for 24 h at standard culture conditions (37° C., 95% humidity, 5% CO2). After 24 h incubation, medium was removed and new medium containing the peptide Ac-SEQ ID NO: 8-NH2 at 0.01, 0.05 or 0.1 mg/mL was added to the wells concentration. Treatment lasted 24 hours or 48 hours and at the end of the assay cell culture media were collected. Cells treated only with culture medium were used as basal control (non-treated cells).
After 24 and 48 hours of treatment the amount of collagen type I produced and released by the cells (ex-novo collagen type I synthesis) was measured in cell culture medium by means of ELISA assay. The results of the test item were compared to basal control condition (non-treated cells). The treatments were performed in triplicate in three different experimental sessions.
The determination of collagen type I synthesis was carried out by means of a competitive ELISA method. Samples were added to enzyme wells which were pre-coated with antibodies, then the recognition antigen labeled with Horseradish peroxidase (HRP) was added; after being incubated 1 hour at 37° C., both compete with solid phase antigen and form immune complex. After washing with phosphate buffer solution, the combined HRP catalyzes Tetramethylbenzidine (TMB) into blue, and turns into yellow by the action of acid; it has an absorption peak under 450 nm wavelength and its absorbance is negatively correlated with antigen density of sample. The plates were read by microplate reader.
The quantitative determination uses a calibration curve made-up of known and growing concentrations of standard collagen type 1. The results are expressed as collagen type I concentration (μg/ml) in 50 μL cell culture medium.
Three trials were performed for each determination in three different experimental sessions. The % variation in collagen type I content between negative controls and samples was calculated and a direct index of the efficacy of the peptide to increase collagen I synthesis was obtained.

Substance: Ac-His-Ala-Leu-Arg-Phe-Trp-NH2 [Ac-SEQ ID NO: 8-NH2]
- Result: modulation of acetylcholine release (LAN cells): Active in the modulation of
- reduction of myosin heavy chain protein levels (myosin heavy chain; 0.05 mg/mL): −26%
- myosin heavy chain protein levels (representative images, FIG. 5) (myosin heavy chain; 0.05 mg/mL): reduction of myosin heavy chain protein levels
- reduction of myosin heavy chain protein levels (myosin heavy chain; 0.5 mg/mL): −38%
- increase of collagen type I production (collagen type I; 0.01 mg/mL, 24 h): 9%
- increase of collagen type I production (collagen type I; 0.01 mg/mL, 48 h): 16%
- increase of collagen type I production (collagen type I; 0.05 mg/mL, 24 h): 31%
- increase of collagen type I production (collagen type I; 0.05 mg/mL, 48 h): 29.5%
- increase of collagen type I production (collagen type I; 0.1 mg/mL, 24 h): 37.5%
- increase of collagen type I production (collagen type I; 0.1 mg/mL, 48 h): 56.5%
